From ChEMBL document CHEMBL3585279, “Novel 2,5-disubtituted-1,3,4-oxadiazoles with benzimidazole backbone: a new class of β-glucuronidase inhibitors and in silico studies” (Bioorg Med Chem, 2015)

target: T1, Beta-glucuronidase (Homo sapiens, UniProt P08236)
T1 sequence (P08236 whole entry): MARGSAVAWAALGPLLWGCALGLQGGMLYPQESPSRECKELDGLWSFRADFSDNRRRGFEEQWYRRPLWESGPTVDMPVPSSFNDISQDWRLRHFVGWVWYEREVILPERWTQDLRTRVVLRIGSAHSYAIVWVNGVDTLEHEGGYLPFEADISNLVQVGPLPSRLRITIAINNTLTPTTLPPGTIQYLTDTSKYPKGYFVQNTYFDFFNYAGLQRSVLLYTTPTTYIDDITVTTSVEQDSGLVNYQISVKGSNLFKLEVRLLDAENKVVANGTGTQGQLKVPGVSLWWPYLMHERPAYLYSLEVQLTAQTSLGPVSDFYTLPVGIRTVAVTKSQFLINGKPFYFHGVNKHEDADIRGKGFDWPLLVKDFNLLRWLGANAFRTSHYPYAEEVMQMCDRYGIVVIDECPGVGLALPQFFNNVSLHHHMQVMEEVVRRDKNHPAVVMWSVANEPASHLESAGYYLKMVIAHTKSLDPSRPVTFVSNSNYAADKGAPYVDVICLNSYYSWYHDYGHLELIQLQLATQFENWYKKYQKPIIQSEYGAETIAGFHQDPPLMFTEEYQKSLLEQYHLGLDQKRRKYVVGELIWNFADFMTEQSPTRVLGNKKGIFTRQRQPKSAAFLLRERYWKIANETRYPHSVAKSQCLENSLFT
Description: Inhibition of beta-D-glucuronidase (unknown origin) assessed as reduction in p-nitrophenol formation using p-nitrophenyl-beta-D-glucuronide substarte incubated at 37 degC for 30 mins by spectrophotometric method

IC50 | Compound
Not Active | COc1ccc(-c2nnc(-c3ccc(-c4nc5cc(C)c(C)cc5[nH]4)cc3)o2)cc1
Not Active | Cc1cccc(-c2nnc(-c3ccc(-c4nc5cc(C)c(C)cc5[nH]4)cc3)o2)c1
Not Active | Cc1cc2nc(-c3ccc(-c4nnc(-c5ccccc5C)o4)cc3)[nH]c2cc1C
